Data on 15 compounds can be found in patent publication US12172993B2 (priority 2018, dated 2024).

In brackets after ≈: the same amount, converted by molar mass. Like-named read-outs stand apart in the source and are kept apart here.

One series relates to M579-A2-luc. It counts as cell-based.
For a further series, the target named is SRC (GST-HIS-tag) (Homo sapiens (Human), UniProt P12931). It counts as biochemical.
The target of another series is SIK1 (Homo sapiens (Human), UniProt P57059). It counts as biochemical.
The conditions of series [1]: mouse, microsomes.
The next series addresses ABL1 wt (Homo sapiens (Human), UniProt P00519). It counts as biochemical.
Series [2] is described as follows: in vitro. Particulars: mouse, microsomes.
A further series can be described thus: physchem. It counts as physicochemical.
For series [3] the following is noted: human, microsomes.
The target of the next series is SIK2 (Homo sapiens (Human), UniProt Q9H0K1). It counts as biochemical.
Series [4] is described as follows: in vitro. Conditions: human, microsomes.
Series [5] has as its target T1, SIK3 (Homo sapiens (Human), UniProt Q9Y2K2).
The next series is described as follows: in vivo. Conditions: CD1, mouse, plasma, oral, 30 mg/kg; read-out: Free concentration (nM) at timepoint after 30 mg/kg po.
The subject of a further series is MC38 cells. Put plainly: cells. Conditions: Mus musculus, MC-38, 72 h, read-out: MC38 IC50 (nM at 100 ng/mL TNF).
Series [6] deals with T1, SIK3. Put plainly: biochemical.
The subject of the next series is HDAC4 phosphorylation. Conditions: PANC-1 cells, 10 ng/mL rHuTNF, 3 h.
For the next series, the system named is NFKB activity. Particulars: PANC-1 reporter cells, 10 ng/ml rHuTNF.

Chain of ABL1 wt (P00519 118-535 limits assumed): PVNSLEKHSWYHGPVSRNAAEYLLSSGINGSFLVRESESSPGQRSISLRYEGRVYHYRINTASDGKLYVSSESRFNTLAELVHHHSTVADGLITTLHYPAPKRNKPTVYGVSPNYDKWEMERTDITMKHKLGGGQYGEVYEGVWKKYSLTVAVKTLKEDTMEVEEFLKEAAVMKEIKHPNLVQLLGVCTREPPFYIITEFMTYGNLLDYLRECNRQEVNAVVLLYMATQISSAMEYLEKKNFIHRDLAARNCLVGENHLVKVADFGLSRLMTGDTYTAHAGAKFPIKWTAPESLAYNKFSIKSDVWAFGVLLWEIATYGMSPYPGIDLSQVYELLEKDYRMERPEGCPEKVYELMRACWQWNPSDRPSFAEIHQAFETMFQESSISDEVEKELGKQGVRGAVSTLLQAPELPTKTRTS

`Cc1nc(Nc2ncc(C(=O)Nc3c(Cl)cccc3Br)s2)cc(N2CCN(CCO)CC2)n1` [Compound B1, N-(2-bromo-6-chlorophenyl)-2-((6-(4-(2-hydroxyethyl)piperazin-l-yl)-2-methylpyrimidin-4-yl)amino)thiazole-5-carboxamide]: in the series on M579-A2-luc, the “cytotoxicity in the presence of TNF (10 ng/mL) compared to inhibitor alone” value (“cytotoxicity … compared to inhibitor alone” below) was “increased cytotoxicity”.

Take `COc1c(F)cccc1NC(=O)c1cnc(Nc2cc(N3CCN(CCO)CC3)nc(C)n2)s1` [Compound B4, N-(3-fluoro-2-methoxyphenyl)-2-((6-(4-(2-hydroxyethyl)piperazin-l-yl)-2-methylpyrimidin-4-yl)amino)thiazole-5-carboxamide]: the “cytotoxicity … compared to inhibitor alone” value in the series on M579-A2-luc is reported as “fails to exhibit cytotoxicity”.

Turning to `CCOc1cccc(Cl)c1NC(=O)c1cnc(Nc2cc(N3CCN(CCO)CC3)nc(C)n2)s1` [Compound B8, N-(2-chloro-6-ethoxyphenyl)-2-((6-(4-(2-hydroxyethyl)piperazin-l-yl)-2-methylpyrimidin-4-yl)amino)thiazole-5-carboxamide], the “cytotoxicity … compared to inhibitor alone” value in the series on M579-A2-luc was “fails to exhibit cytotoxicity”.

Regarding `Cc1nc(Nc2ncc(C(=O)Nc3c(C)ccnc3C)s2)cc(N2CCN(CCO)CC2)n1` [Compound C1, N-(2,4-dimethylpyridin-3-yl)-2-((6-(4-(2-hydroxyethyl)piperazin-1-yl)-2-methylpyrimidin-4-yl)amino)thiazole-5-carboxamide], at SRC (GST-HIS-tag), the IC50 was < 1.5 nM.

For the compound `Cc1nc(Nc2ncc(C(=O)Nc3ncccc3C)s2)cc(N2CCN(CCO)CC2)n1` [Compound C2, 2-((6-(4-(2-hydroxyethyl)piperazin-1-yl)-2-methylpyrimidin-4-yl)amino)-N-(3-methylpyridin-2-yl)thiazole-5-carboxamide], the IC50 on SIK1 was 177 nM; at ABL1 wt, 14.4 nM; on SIK2 it was 427 nM; against SRC (GST-HIS-tag), < 1.5 nM. In addition, the Intrinsic clearance (L/min/mg) is 35 µL/min/mg in [1] and < 17 µL/min/mg in series [3]. The “% Remaining at 40 min (%)” value is on record as 48% in [1] and 69% in series [3]. For the same compound, the “Percentage unbound (%)” value with human plasma-proteins is reported as 9%; in the series on murine plasma-proteins, 30%. The results for the half-life in “in vitro [2]” and in “in vitro [4]” were 0.667 h and > 1.43 h, respectively. Further, the solubility (kinetic) is 160 µM (≈ 72.7 µg/mL) in “physchem” and 128 to 195 µM (≈ 58.2 to 88.6 µg/mL) in “physchem” (kinetic from dmso stock).

On to `Cc1nc(Nc2ncc(C(=O)Nc3c(C)cncc3Cl)s2)cc(N2CCN(CCO)CC2)n1` [Compound C4, N-(3-chloro-5-methylpyridin-4-yl)-2-((6-(4-(2-hydroxyethyl)piperazin-1-yl)-2-methylpyrimidin-4-yl)amino)thiazole-5-carboxamide], for which the Intrinsic clearance (L/min/mg) in series [1] was found to be 38 µL/min/mg; in series [3] it was 115 µL/min/mg. Also, the “% Remaining at 40 min (%)” value in series [1] was 45%; in series [3] it was 10%. Also, the results for the “Percentage unbound (%)” value in the series with human plasma-proteins and in the series on murine plasma-proteins were 2% and 14%, respectively. Moreover, the kinetic solubility in “physchem” (kinetic from dmso stock) was 128 µM (≈ 62.6 µg/mL). In addition, the IC50 against SRC (GST-HIS-tag) was < 1.5 nM.

Consider `Cc1nc(Nc2ncc(C(=O)Nc3c(C)cncc3C)s2)cc(N2CCN(CCO)CC2)n1` [Compound C5, N-(3,5-dimethylpyridin-4-yl)-2-((6-(4-(2-hydroxyethyl)piperazin-1-yl)-2-methylpyrimidin-4-yl)amino)thiazole-5-carboxamide], for which the IC50 against SRC (GST-HIS-tag) is < 1.5 nM.

Regarding `Cc1nc(Nc2ncc(C(=O)Nc3cccnc3C)s2)cc(N2CCN(CCO)CC2)n1` [Compound C6, 2-((6-(4-(2-hydroxyethyl)piperazin-1-yl)-2-methylpyrimidin-4-yl)amino)-N-(2-methylpyridin-3-yl)thiazole-5-carboxamide], the IC50 on SRC (GST-HIS-tag) was < 1.5 nM.

With `Cc1nc(Nc2ncc(C(=O)Nc3c(C)nn(C)c3C)s2)cc(N2CCN(CCO)CC2)n1` [Compound C8, 2-((6-(4-(2-hydroxyethyl)piperazin-1-yl)-2-methylpyrimidin-4-yl)amino)-N-(1,3,5-trimethyl-1H-pyrazol-4-yl)thiazole-5-carboxamide], the Intrinsic clearance (L/min/mg) in series [1] and in series [3] was < 14 µL/min/mg throughout. Also, the “% Remaining at 40 min (%)” value in series [1] was 86%; in series [3], 81%. The “Percentage unbound (%)” value in the series on human plasma-proteins is 5%; in the series with murine plasma-proteins, 62%. Besides, the solubility (kinetic) in “physchem” (kinetic from dmso stock) fell in the range of 128 to 195 µM (≈ 60.4 to 92 µg/mL).

In the case of `Cc1nc(Nc2ncc(C(=O)Nc3c(C)noc3C)s2)cc(N2CCN(CCO)CC2)n1` [Compound C9], the IC50 turned out to be 169 nM on SIK1; 27.4 nM against ABL1 wt; 232 nM at SIK2; 800 nM on SIK3 [5]; 6.44 nM against SRC (GST-HIS-tag). For the same compound, the Intrinsic clearance (L/min/mg) in series [1] and in series [3] was < 14 µL/min/mg in each case. Moreover, the entries for the “% Remaining at 40 min (%)” value in [1] and in series [3] were 83% and 89%, respectively. The “Percentage unbound (%)” value with human plasma-proteins is reported as 6%; in the series with murine plasma-proteins, 44%. For the same compound, the half-life in the series “in vitro [2]” and in the series “in vitro [4]” was > 1.67 h throughout. Moreover, the kinetic solubility is 174 µM (≈ 79.8 µg/mL) in “physchem” and 128 to 195 µM (≈ 58.7 to 89.4 µg/mL) in the series “physchem” (kinetic from dmso stock).

With `Cc1nc(Nc2ncc(C(=O)Nc3c(Cl)ccnc3C)s2)cc(N2CCN(C)CC2)n1` [Compound C10], the IC50 against ABL1 wt was 4.3 nM; against SIK2, 138 nM; against SIK3 [5] it was 493 nM; on SRC (GST-HIS-tag), < 1.5 nM.

Turning to `Cc1nc(NCCO)cc(Nc2ncc(C(=O)Nc3c(Cl)ccnc3C)s2)n1` [Compound C11, N-(4-chloro-2-methylpyridin-3-yl)-2-((6-((2-hydroxyethyl)amino)-2-methylpyrimidin-4-yl)amino)thiazole-5-carboxamide], at SRC (GST-HIS-tag), the IC50 was < 1.5 nM.

In the case of `Cc1nc(Nc2ncc(C(=O)Nc3c(Cl)csc3C)s2)cc(N2CCN(CCO)CC2)n1` [Compound D1, N-(4-chloro-2-methylthiophen-3-yl)-2-((6-(4-(2-hydroxyethyl)piperazin-1-y1)-2-methylpyrimidin-4-yl)amino)thiazole-5-carboxamidexs], in the series “in vivo”, the concentration at 2 h is 80 nM, the concentration at 6 h was determined as 4 nM and the concentration at 12 h was 2.14 nM. Moreover, the IC50 in the series on MC38 cells was < 200 nM. The IC50 against SIK3 [6] lay in the range of 40 to 45 nM.

For the compound `CC(=O)N1CCN(c2cc(Nc3ncc(C(=O)Nc4c(C)csc4Cl)s3)nc(C)n2)CC1` [Compound D8, 2-((6-(4-acetylpiperazin-1-yl)-2-methylpyrimidin-4-yl)amino)-N-(2-chloro-4-methylthiophen-3-yl)thiazole-5-carboxamide], the IC50 was > 200 nM with MC38 cells and ~150 nM on SIK3 [5].

For the compound `Cc1nc(Nc2ncc(C(=O)Nc3c(C)csc3Cl)s2)cc(N2CCN(C)CC2)n1` [Compound D9, N-(2-chloro-4-methylthiophen-3-yl)-2-((2-methyl-6-(4-methylpiperazin-1-yl)pyrimidin-4-yl)amino)thiazole-5-carboxamide], in “in vivo”, the concentration at 2 h stood at 44 nM, the concentration at 6 h came out at 8 nM and the concentration at 12 h stood at 2.71 nM. In addition, in the series on MC38 cells, the IC50 was < 100 nM. For the same compound, in the series on HDAC4 phosphorylation, the “Inhibition of HDAC4 phosphorylation” value is reported as “+”. Besides, the “Inhibition of NFKB activity” value with NFKB activity is “+”. At SIK3 [5], the IC50 is ~60 nM.

As usually defined, the half-life is the time in which the quantity being followed falls by half. A lower half-life goes with fast loss. As a reminder, the solubility (kinetic) is solubility judged after dilution from a stock solution rather than from solid.
